Patent publication US20230357159A1, “QUINOLINE COMPOUNDS AS SELECTIVE AND/OR DUAL MODULATORS OF BILE ACID RECEPTORS AND LEUKOTRIENE CYSTEINYL RECEPTORS” (PRECISION BIO-THERAPEUTICS S.R.L., priority 2020, published 2023)
Converted amounts (≈) assume the structure as drawn.

Legend:
FXR [1] = target: T1, FXR (Homo sapiens, UniProt Q96RI1); test: FXR-mediated transactivation, luciferase reporter in HepG2 cells; format: cell-based; settings: compound at 10 microM, CDCA = 100%
T1 construct: expressed in transfected cells; host or cells: HepG2
T1 sequence (Q96RI1 1-486): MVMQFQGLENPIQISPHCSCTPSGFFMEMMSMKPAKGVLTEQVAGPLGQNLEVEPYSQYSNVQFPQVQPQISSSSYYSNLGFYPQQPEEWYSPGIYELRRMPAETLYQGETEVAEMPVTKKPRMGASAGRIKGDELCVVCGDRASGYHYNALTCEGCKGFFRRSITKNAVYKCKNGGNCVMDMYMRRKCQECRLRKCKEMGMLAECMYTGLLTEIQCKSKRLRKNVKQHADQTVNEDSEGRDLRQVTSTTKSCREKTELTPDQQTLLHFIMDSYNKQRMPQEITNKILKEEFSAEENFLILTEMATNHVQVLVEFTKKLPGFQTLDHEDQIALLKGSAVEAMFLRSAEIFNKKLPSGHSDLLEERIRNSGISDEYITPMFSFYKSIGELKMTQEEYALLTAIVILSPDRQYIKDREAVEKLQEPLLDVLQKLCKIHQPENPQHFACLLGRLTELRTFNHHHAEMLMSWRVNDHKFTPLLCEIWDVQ
T1 sequence (P19793 1-462 partner): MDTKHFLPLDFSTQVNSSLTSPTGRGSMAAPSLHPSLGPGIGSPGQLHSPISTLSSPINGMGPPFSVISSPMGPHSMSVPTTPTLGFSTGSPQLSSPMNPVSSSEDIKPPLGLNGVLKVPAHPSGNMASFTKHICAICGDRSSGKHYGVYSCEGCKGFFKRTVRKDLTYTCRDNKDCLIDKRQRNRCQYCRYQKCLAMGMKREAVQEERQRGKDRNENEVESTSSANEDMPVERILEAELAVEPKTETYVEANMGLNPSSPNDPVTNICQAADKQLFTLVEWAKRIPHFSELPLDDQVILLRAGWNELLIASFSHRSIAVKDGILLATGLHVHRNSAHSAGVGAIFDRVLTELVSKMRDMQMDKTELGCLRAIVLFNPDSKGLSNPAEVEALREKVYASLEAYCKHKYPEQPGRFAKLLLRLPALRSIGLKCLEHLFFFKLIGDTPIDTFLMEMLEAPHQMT
Description: (§1) In this table, the activities of the compounds are compared with specific reference compounds, namely CDCA for FXR, TLCA for TGR5/GPBAR1, MK571 for CysLT1R. Each compound is tested at a concentration of 10 microM and the activity of the reference compounds is considered to be 100%.
For FXR-mediated transactivation, the HepG2 cells were transfected with 200 ng of the p(hsp27)-TK-LUC reporter vector containing the FXR response element (IR1) cloned from the heat shock protein 27 (hsp27) promoter, 100 ng of pSG5-FXR, 100 ng of pSG5-RXR and 100 of pGL4.70 (Promega, Madison WI), a vector encoding for the human Renilla gene. […]
(§2) Eighteen hours after stimulation, the cell lysates were used to assess Luciferase and Renilla activity by means of the Dual-Luciferase Reporter assay (E1980, Promega Madison WI). The luminescence was measured using the Glomax 20/20 luminometer (Promega, Madison WI) and the Luciferase activity was normalised with the Renilla activity.

CysLT1R = target: T2, CysLT1R (Homo sapiens, UniProt Q9Y271); test: CysLT1R antagonistic activity assay (Ca2+ fluorescence, 0.1 nM LTD4; Eurofins Cerep-Panlabs); format: cell-based; settings: for inhibition at 10 µM: read-out: CysLTR1 (% of inhibition compared to the compound MK571); for IC50: antagonism of 0.1 nM LTD4, read-out: CysLTR1 ICso
T2 construct: Eurofins Cerep-Panlabs (France)
T2 sequence (Q9Y271 1-337): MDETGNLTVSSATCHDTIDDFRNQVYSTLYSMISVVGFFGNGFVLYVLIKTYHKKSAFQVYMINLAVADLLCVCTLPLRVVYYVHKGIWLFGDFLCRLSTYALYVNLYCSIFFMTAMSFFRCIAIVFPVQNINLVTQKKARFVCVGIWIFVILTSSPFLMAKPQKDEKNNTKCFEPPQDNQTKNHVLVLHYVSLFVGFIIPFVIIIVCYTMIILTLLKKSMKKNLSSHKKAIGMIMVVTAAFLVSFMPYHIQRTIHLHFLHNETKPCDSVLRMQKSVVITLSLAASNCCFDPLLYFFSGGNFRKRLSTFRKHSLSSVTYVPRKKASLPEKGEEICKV
Description: as §1
The antagonistic activity assay was performed by Eurofins Cerep-Panlabs (France). […] The plates are then placed in a microplate reader (CellLux, PerkinElmer), which is used to add the compounds to be tested or the HBSS buffer and then after 5 min with a 0.1 nM LTD4 or HBSS buffer solution (used as control). The change in intensity and fluorescence that varies in proportion to the concentration of free Ca^2+ ion in the cytosol is measured.

human GPBAR1 = target: T3, human GPBAR1 (Homo sapiens, UniProt Q8TDU6); test: GPBAR1-mediated transactivation, CRE-luciferase reporter in HEK-293T cells; format: cell-based; settings: for GPBAR1 (% of activity compared to 10 µM TLCA): compound at 10 microM, TLCA = 100%
T3 construct: expressed in transfected cells; host or cells: HEK-293T
T3 sequence (Q8TDU6 1-330): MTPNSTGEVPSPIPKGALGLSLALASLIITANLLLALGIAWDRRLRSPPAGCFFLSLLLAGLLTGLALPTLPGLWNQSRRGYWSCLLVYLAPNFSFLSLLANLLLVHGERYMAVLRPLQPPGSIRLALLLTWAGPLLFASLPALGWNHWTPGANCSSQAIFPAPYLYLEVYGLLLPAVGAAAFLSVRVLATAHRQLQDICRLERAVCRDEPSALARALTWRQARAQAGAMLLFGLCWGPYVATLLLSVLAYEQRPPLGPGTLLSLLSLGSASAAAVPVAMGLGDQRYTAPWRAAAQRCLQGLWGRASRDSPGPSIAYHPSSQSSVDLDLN
Description: as §1
In another experimental set, 24 hours after transfection, the cells were stimulated with 50 µM of the derivatives CHIN in combination with 10 µM of CDCA or TLCA.
as §2

FXR [2] = target: T1, FXR; test: FXR-mediated transactivation, luciferase reporter in HepG2 cells; format: cell-based; settings: dose-response 0.1-75 µM, read-out: FXR ECso
wild-type C57/B16 mice = test: Acetaminophen (APAP)-induced acute hepatitis in mice; format: in vivo; settings: APAP 500 mg/kg oral gavage; 30 mg/kg orally 45 min after induction; 24 hours
Description: CHIN117 and the effect thereof in reducing acetaminophen-induced liver damage (APAP) are of particular interest. In the experimental set, acute hepatitis was induced in wild-type C57/B16 mice by administration of acetaminophen (APAP) at a concentration of 500 mg/kg via oral gavage. 45 minutes after induction of the disease, CHIN117 was administered at a concentration of 30 mg/kg orally. The mice were sacrificed 24 hours after induction of the disease and blood was taken and analysed for blood count and AST and ALT transaminase values.
The administration of the compound CHIN117 was able to alleviate the APAP-induced liver damage by reducing AST and ALT values by about 10-fold if compared to those recorded in the group of mice treated with APAP alone.

male C57BL/6 mice = test: HFD-F diet murine model of NAFLD/NASH; format: in vivo; settings: 30 mg/kg daily from day 7
Description: CHIN117 and the efficacy thereof in a murine model of chronic hepatitis induced by a high-fat diet are of particular interest. This murine model simulates NAFLD, which represents a rapidly growing epidemic in industrialised countries and has a very high cost for the health care system. In this model, the mice (male C57BL/6 mice) were fed a diet rich in lipids and cholesterol (2% cholesterol) and added fructose (3%) in water (HFD-F) for 60 days. CHIN117 was administered daily at a dose of 30 mg/kg starting on day 7. […] After eight weeks, the mice develop insulin resistance, as shown by the OGTT results (FIGS. 4E, F).
In addition, HFD-F indicates an increase in body mass index (BMI) and weight of the white adipose tissue of the epididymis (eWAT), of the brown adipose tissue (BAT) and of the liver (FIGS. 5C-I).

Aqueous solubility = format: physicochemical; settings: pH 7.4
S9 fraction = test: Metabolic stability in vitro, S9 fraction; format: in vitro ADME; settings: also phase II enzymes
[3] = compound at 10 microM, MK571 = 100%, 0.1 nM LTD4

FXR (% of activity compared to 10 µM CDCA) (FXR [1])	inhibition at 10 µM (CysLT1R; [3])	GPBAR1 (% of activity compared to 10 µM TLCA) (human GPBAR1)	SMILES	also measured
5.92%	26%	–	OCc1cc(O)cc(OCc2ccc3ccccc3n2)c1 [CHIN109, 3-(hydroxymethyl) -5-(quinolin-2-ylmethoxy)phenol]	–
8.22%	–	–	O=C(O)c1cc(O)cc(OCc2ccc3ccccc3n2)c1 [CHIN108, 3-hydroxy-5-(quinolin-2-ylmethoxy)benzoic Acid]	–
32.46%	–	23%	COC(=O)c1cccc(OCc2ccc3ccccc3n2)c1 [CHIN104, Methyl 3-(Quinolin-2-ylmethoxy)Benzoate]	EC50 (FXR [2]): 9 µM
–	79%	–	CC(C)Oc1cccc(OCc2ccc3ccccc3n2)c1 [CHIN111, 2-((3-isopropoxyphenoxy)methyl)quinoline]	–
12.78%	59%	17.58%	COC(=O)c1cc(O)cc(OCc2ccc3ccccc3n2)c1 [CHIN107, methyl 3-hydroxy-5-(quinolin-2-ylmethoxy)benzoate]	IC50 (CysLT1R): > 10 µM

More lines, now with the values behind:

SMILES	FXR (% of activity compared to 10 µM CDCA) (FXR [1])	inhibition at 10 µM (CysLT1R; [3])	GPBAR1 (% of activity compared to 10 µM TLCA) (human GPBAR1)	also measured
OCc1cccc(-c2ccc(OCc3ccc4ccccc4n3)cc2)c1 [CHIN121, (4′-(quinolin-2-ylmethoxy)-[1,1′-biphenyl]-3-yl)methanol]	8.22%	–	64.9%	–
COC(=O)c1cccc(-c2ccc(OCc3ccc4ccccc4n3)cc2)c1 [CHIN116, Methyl 4′-(quinolin-2-ylmethoxy)-[1,1′-biphenyl]-3-carboxylate]	11.14%	21%	56.91%	–
O=C(O)c1ccc(-c2ccc(OCc3ccc4ccccc4n3)cc2)cc1 [CHIN120, 4′-(quinolin-2-ylmethoxy)-[1,1′-biphenyl]-4-carboxylic Acid]	12.76%	43%	36.74%	–
CCC(C)COc1cccc(OCc2ccc3ccccc3n2)c1 (stereo not shown) [CHIN114, 2-((3-(2-methylbutoxy)phenoxy)methyl)quinoline]	–	15%	–	–
O=C(O)c1cccc(-c2ccc(OCc3ccc4ccccc4n3)cc2)c1 [CHIN117, 4′-(quinolin-2-ylmethoxy)-[1,1′-biphenyl]-3-carboxylic Acid]	8.9%	109%	82%	EC50 (human GPBAR1; dose-response 0.1-75 µM, read-out: GPBAR1 ECso): 4.6 µM; IC50 (CysLT1R): 5.67 µM; circulating white blood cell (WBC) values (wild-type C57/B16 mice): comparable to those found in untreated mice; reduction of ALT values compared to mice treated with APAP alone (wild-type C57/B16 mice): about 10 fold; reduction of AST values compared to mice treated with APAP alone (wild-type C57/B16 mice): about 10 fold; reduction of weight gain (male C57BL/6 mice; HFD-F diet 60 days): about 3 grams; hepatic steatosis, BMI and eWAT, BAT and liver weight (male C57BL/6 mice; HFD-F diet for 8 weeks): almost completely reversed the disease; AUC of OGTT (male C57BL/6 mice; HFD-F diet, after eight weeks): reduces the AUC of OGTT; ALT levels (male C57BL/6 mice; plasma, HFD-F diet): statistically reduces; AST levels (male C57BL/6 mice; plasma, HFD-F diet): statistically reduces; LDL levels (male C57BL/6 mice; plasma, HFD-F diet): statistically reduces; aqueous solubility (Aqueous solubility): 66 µM (≈ 23.5 µg/mL); CLint S9 fraction (S9 fraction): 6
COC(=O)c1ccc(-c2ccc(OCc3ccc4ccccc4n3)cc2)cc1 [CHIN119, Methyl 4′-(quinolin-2-ylmethoxy)-[1,1′-biphenyl]-4-carboxylate]	6.83%	13%	13.5%	–
OCc1cccc(-c2ccc(OCc3ccc4ccccc4n3)cc2)c1 [CHIN118]	–	–	–	CysLTR1 (% of inhibition compared to the compound MK571) (CysLT1R; [3]): 59%
